# Measured values as given in patent US8552013B2, “Heterocyclic compounds based on N6-substituted adenine, methods of their preparation, their use for preparation of drugs, cosmetic preparations and growth regulators, pharmaceutical preparations, cosmetic preparations and growth regulators containing these compounds” (USTAV Experimentalni Botaniky Akademie Ved Ceske Republiky, priority 2001, dated 2013).
# Legend:
# [1] = tested on: human diploid fibroblasts (HCA cells); assay: Senescence, beta-galactosidase staining of human diploid fibroblasts; type: cell-based; conditions: for SENESCENT CELLS (%) HCA25: passage 25; for SENESCENT CELLS (%) HCA45: passage 45; for SENESCENT CELLS (%) HCA80: passage 80
# Experimental: In this example, human diploid fibroblasts (HCA cells of various passage levels: passage 25—designated HCA25; passage 45—designated HCA45; passage 80—designated HCA80) were stained for β-galactosidase activity. The medium used for cell cultivation was removed, the cells were washed twice in […], and fixed in 2-3 ml of fixing solution comprised of a 2% formaldehyde and 0.2% glutaraldehyde in PBS. The cells were incubated at room temperature for 5 minutes, then washed twice with PBS. The cells were subsequently incubated at 37° C. (without CO2) for 1 to 16 hours in 2-3 ml of a solution comprising potassium ferricyanide (5 mM), potassium ferrocyanide (5 mM), MgCl2 (2 mM), X-gal (5-bromo-4-chloro-3-indolyl-β-D-galactopyranoside) (1 mg/ml), in citric/phosphate buffer, pH 6.0). […] In this experiment, senescent cells, but not other cells were stained blue due to the action of β-galactosidase on the substrate (FIG. 4).
# [2] = tested on: Triticum aestivum cv. Hereward leaf tips; assay: Retention of chlorophyll in excised wheat leaf tips; type: in vivo; conditions: for Activity (%) [10^−4 mol · l^−1 BAP = 100%]: chlorophyll retention at the concentration with highest activity
# Experimental: Seeds of winter wheat, Triticum aestivum cv. Hereward, were washed under running water for 24 hours and then sown on vermiculite soaked with Knop's solution. They were placed in the grown chamber at 25° C. with a 16/8 h light period at 50 μmol.m^−2.s^−1. After 7 days, the first leaf was fully developed and the second leaf had started to grow. A tip section of the first leaf, approximately 35 mm long, was removed from 5 seedlings and trimmed slightly to a combined weight of 100 mg. The basal ends of the five leaf tips were placed in the wells of a microtiter polystyrene plate containing 150 μl of a cytokinin solution each. The entire plate was inserted into a plastic box lined with paper tissues soaked in distilled water to prevent leaf sections from drying out. After a 96 h incubation in the dark at 25° C., the leaves were removed and chlorophyll extracted by heating at 80° C. for 10 min in 5 ml of 80% ethanol (v/v). The sample volume was then restored to 5 ml by the addition of 80% ethanol (v/v). The absorbency of the extract was recorded at 665 nm. In addition, chlorophyll extracts from fresh leaves and leaf tips incubated in deionised water were measured. From the obtained data, the concentration with highest activity was selected for each compound tested. Relative activity of the compound at this concentration was calculated (Tab. 6). The activity obtained for 10^−4 M 6-benzylaminopurine (BAP) was postulated as 100%. The values shown are means of five replicates and the whole experiment was repeated twice. The cytokinins to be tested were dissolved in dimethylsulfoxide (DMSO) and the solution brought up to 10^−3M with distilled water. This stock was further diluted in distilled water to concentrations ranging from 10^−8M to 10^−4M.
# [3] = tested on: tobacco callus Nicotiana tabacum L. cv. Wisconsin 38; assay: Cytokinin-dependent tobacco callus growth; type: cell-based; conditions: fresh callus weight at the concentration with highest activity
# Experimental: Cytokinin-dependent tobacco callus Nicotiana tabacum L. cv. Wisconsin 38 was maintained at 25° C. in darkness on modified Murashige-Skoog medium, containing per 1 liter: 4 μmol nicotinic acid, 2.4 μmol pyridoxine hydrochloride, 1.2 μmol thiamine, 26.6 μmol glycine, 1.37 μmol glutamine, 1.8 μmol myo-inositol, 30 g of sucrose, 8 g of agar, 5.37 μmol α-naphtylacetic acid (NAA) and 0.5 μmol benzylaminopurine (BAP). Subcultivation was carried out every three weeks. Fourteen days before the bioassay, the callus tissue was transferred to the media without 6-benzylaminopurine (BAP). Biological activity was determined from the increase in fresh callus weight after four weeks of cultivation. Five replicates were prepared for each cytokinin concentration and the entire test was repeated twice. From the obtained data, the concentration with highest activity was selected for each compound tested. Relative activity of the compound at this concentration was calculated (Tab. 6). The activity obtained for 10^−4 M 6-benzylaminopurine (BAP) was postulated as 100%. The cytokinins to be tested were dissolved in dimethylsulfoxide (DMSO) and the solution brought up to 10^−3M with distilled water. This stock was further diluted in the respective media used for the biotest to concentrations ranging from 10^−8M to 10^−4M.
# [4] = tested on: Amaranthus caudatus cotyledon/hypocotyl explants; assay: Amaranthus bioassay, betacyanin content; type: in vivo; conditions: betacyanin content at the concentration with highest activity
# Experimental: Standard Amaranthus bioassay was performed with several modifications. The seeds of Amaranthus caudatus var. atropurpurea were surface-sterilised in 10% N-chlorobenzenesulfonamide (w/v) for 10 min and washed 5 times in deionized water. They were placed in 14 cm Petri dishes containing paper tissues saturated with deionized water. After 72 h of cultivation at 25° C. in darkness, the roots of the seedlings were cut off. The explants, consisting of two cotyledons and hypocotyls, were placed in 5 cm Petri dishes on two layers of filter paper soaked in 1 ml of incubation medium containing 10 μmol NA2HPO4-KH2PO4, pH 6.8, 5 μmol tyrosine and the cytokinin to be tested. There were 20 explants per dish. The procedure was carried out under a green safe light in a darkroom. After a 48 h of incubation at 25° C. in darkness, betacyanin was extracted by freezing the explants in 4 ml […] acetic acid. The concentration of betacyanin was determined by comparing the absorbance at 537 nm and 620 nm as follows: ΔA=[…] nm-A620 nm. From the obtained data, the concentration with highest activity was selected for each compound tested. Relative activity of the compound at this concentration was calculated (Tab. 6). […] The values shown in table 8 are means of five replicates and the entire test was repeated twice. The cytokinins to be tested were dissolved in dimethylsulfoxide (DMSO) and the solution brought up to 10^-3M with distilled water. This stock was further diluted in the respective media used for the biotest to concentrations ranging from 10^-8M to 10^-4M.
Compound,SENESCENT CELLS (%) HCA25 [1] [%],SENESCENT CELLS (%) HCA45 [1] [%],SENESCENT CELLS (%) HCA80 [1] [%],Activity (%) [10^−4 mol · l^−1 BAP = 100%] [2],"concentration with highest activity ([2]; wheat leaf tips, 96 h in the dark)",Activity (%) [10^−4 mol · l^−1 BAP = 100%] [3],activity (%) [10^−5 mol · l^−1 BAP = 100%] [4]
"NCc1ccc(Cl)c(N)c1N [2,3-diamino-4-chlorobenzylamine]",4,3,17,–,–,–,–
"Oc1c(Cl)ccc(CNc2ncnc3nc[nH]c23)c1O [2,3-dihydroxy-4-chlorobenzylamino, 6-(2,3-dihydroxy-4-chlorobenzylamino)purine]",3,3,14,–,–,–,–
"COc1ccc(CNc2ncnc3nc[nH]c23)c(O)c1O [2,3-dihydroxy-4-methoxybenzylamino, 6-(2,3-dihydroxy-4-methoxybenzylamino)purine]",3,4,17,–,–,–,–
"Oc1cc(CNc2ncnc3nc[nH]c23)c(O)cc1Cl [2,5-dihydroxy-4-chlorobenzylamino, 6-(2,5-dihydroxy-4-chlorobenzylamino)purine]",5,4,23,–,–,–,–
"COc1cc(O)c(CNc2ncnc3nc[nH]c23)cc1O [2,5-dihydroxy-4-methoxybenzylamino, 6-(2,5-dihydroxy-4-methoxybenzylamino)purine]",5,3,22,–,–,–,–
"Oc1cc(Cl)cc(O)c1CNc1ncnc2nc[nH]c12 [2,6-dihydroxy-4-chlorobenzylamino, 6-(2,6-dihydroxy-4-chlorobenzylamino)purine]",3,3,16,–,–,–,–
"COc1cc(O)c(CNc2ncnc3nc[nH]c23)c(O)c1 [2,6-dihydroxy-4-methoxybenzylamino, 6-(2,6-dihydroxy-4-methoxybenzylamino)purine]",4,3,13,–,–,–,–
"CC(=O)Oc1ccccc1CNc1ncnc2nc[nH]c12 [2-acetoxybenzylamino, 6-(2-acetoxybenzylamino)purine]",6,5,32,–,–,–,–
"CC(=O)c1ccccc1CNc1ncnc2nc[nH]c12 [2-acetylbenzylamino, 6-(2-acetylbenzylamino)purine]",3,4,25,–,–,–,–
Nc1nc(NCc2cccc(O)c2)c2[nH]cnc2n1 [2-amino-6-(3-hydroxybenzylamino)purine],–,–,–,121 (±7) %,–,–,–
"Nc1cccc(Cl)c1CNc1ncnc2nc[nH]c12 [2-amino-6-chlorobenzylamine, 6-(2-amino-6-chlorobenzylamino)purine]",3,4,16,–,–,–,–
Oc1cccc(CNc2nc(Cl)nc3nc[nH]c23)c1 [2-chlor-6-(3-hydroxybenzylamino)purine],–,–,–,140 (±13) %,10^−4 mol · l^−1,–,–
"Oc1c(Cl)cccc1CNc1ncnc2nc[nH]c12 [2-hydroxy-3-chlorobenzylamino, 6-(2-hydroxy-3-chloroxybenzylamino)purine]",4,3,14,–,–,–,–
CSc1nc(NCc2cccc(O)c2)c2[nH]cnc2n1 [2-methylthio-6-(3-hydroxybenzylamino)purine],–,–,–,50.5 (±23.5) %,–,–,–
"CC(=O)Oc1cccc(CNc2ncnc3nc[nH]c23)c1 [3-acetoxybenzylamino, 6-(3-acetoxybenzylamino)purine]",4,6,27,–,–,–,–
"CC(=O)c1cccc(CNc2ncnc3nc[nH]c23)c1 [3-acetylbenzylamino, 6-(3-acetylbenzylamino)purine]",5,5,28,–,–,–,–
"Nc1cc(CNc2ncnc3nc[nH]c23)ccc1Cl [3-amino-4-chlorobenzylamine, 6-(3-amino-4-chlorobenzylamino)purine]",5,5,22,–,–,–,–
"O=C(O)c1cc(Nc2ncnc3nc[nH]c23)ccc1O [3-carboxy-4-hydroxyanilino, 6-(3-carboxy-4-hydroxyanilino)purine]",4,2,26,–,–,–,–
"O=C(O)c1ccc(Nc2ncnc3nc[nH]c23)cc1Cl [3-chloro-4-carboxyanilino, 6-(3-chloro-4-carboxyanilino)purine]",5,2,25,–,–,–,–
"COc1cccc(CNc2ncnc3nc[nH]c23)c1OC [6-(2,3-dimethoxybenzylamino)purine]",–,–,–,109 (±5) %,–,8.5 (±2) %,22 (±3) %
"Clc1ccc(CNc2ncnc3nc[nH]c23)c(Cl)c1 [6-(2,4-dichlorobenzylamino)purine]",–,–,–,0%,–,11 (±3) %,19 (±8) %
"COc1ccc(CNc2ncnc3nc[nH]c23)c(OC)c1 [6-(2,4-dimethoxybenzylamino)purine]",–,–,–,26 (±11) %,–,21 (±5) %,12 (±2) %
Brc1ccccc1CNc1ncnc2nc[nH]c12 [6-(2-bromobenzylamino)purine],–,–,–,52 (±14) %,–,102 (±5) %,94 (±6) %
"COc1cc(CNc2ncnc3nc[nH]c23)cc(OC)c1OC [6-(3,4,5-trimethoxybenzylamino)purine]",–,–,–,25 (±2) %,–,19 (±3) %,2 (±2) %
"COc1ccc(CNc2ncnc3nc[nH]c23)cc1OC [6-(3,4-dimethoxybenzylamino)purine]",–,–,–,43 (±17) %,–,–,27 (±6) %
"c1ccc(Nc2ncnc3nc[nH]c23)cc1 [Anilino, 6-anilinopurine]",3,4,27,–,–,–,–
